Laboratory results: PubChem BioAssay (NCI)
Where “and” joins values, the source holds several entries; their conditions need not be identical. Equal values may be shown once.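 Where inhibition never reached the appropriate level, the endpoint shown equals the highest concentration tested. Otherwise, values were interpolated linearly from a five-concentration, 48-hour dose response in 96-well plates. The concentration for 50% growth inhibition is given as GI50. TGI: concentration producing complete growth inhibition.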

Key:
Test in all cases: NCI-60 cell line screen, 48 h
SNB-19 CNS = tested on: SNB-19 CNS
HCC-2998 colon = tested on: HCC-2998 colon
OVCAR-4 ovarian = tested on: OVCAR-4 ovarian
HL-60(TB) leukemia = tested on: HL-60(TB) leukemia
U251 CNS = tested on: U251 CNS
TK-10 renal = tested on: TK-10 renal
KM12 colon = tested on: KM12 colon
T-47D breast = tested on: T-47D breast

| SMILES | GI50 (SNB-19 CNS) | TGI (SNB-19 CNS) | GI50 (HCC-2998 colon) | TGI (HCC-2998 colon) | GI50 (OVCAR-4 ovarian) | TGI (OVCAR-4 ovarian) | GI50 (HL-60(TB) leukemia) | TGI (HL-60(TB) leukemia) | GI50 (U251 CNS) | TGI (U251 CNS) | GI50 (TK-10 renal) | TGI (TK-10 renal) | GI50 (KM12 colon) | TGI (KM12 colon) | GI50 (T-47D breast) | TGI (T-47D breast) |
| --- | --- | --- | --- | --- | --- | --- | --- | --- | --- | --- | --- | --- | --- | --- | --- | --- |
| CCn1c(-c2nonc2N)nc2cncc(C(=O)N3CC[C@H](N)C3)c21 | > 25 µM | > 25 µM | > 25 µM | > 25 µM | > 25 µM | > 25 µM | > 25 µM | > 25 µM | > 25 µM | > 25 µM | 0.549 µM | 9.22 µM | > 25 µM | > 25 µM | 24.9 µM | > 25 µM |
| COc1ccc(/C(C#N)=C2C=C/C(=N/O)c3ccccc3\2)cc1 | 2.8 µM | 29.6 µM | 0.346 µM | 1.44 µM | 0.927 µM | 39.1 µM | 0.254 µM | 0.688 µM | 0.446 µM | 15.1 µM | 11.3 µM | 28 µM | 0.175 µM | 4.82 µM | 13.7 µM | 39.7 µM |
| COC(=O)c1ccc(NC(=O)Oc2ccc(N(CCCl)CCCl)cc2)cc1 | 5.17 µM | > 100 µM | 29.1 µM | > 100 µM | 13.8 µM | 38.2 µM | 0.867 µM | 11.6 µM | 3.09 µM | 41.4 µM | 21.6 µM | 58.9 µM | 24.4 µM | > 100 µM | 2.87 µM | 50.8 µM |
| CCCCCCCCCCCCCC[C@@H](O)[C@H]1CC[C@H]([C@H]2CC[C@H]([C@H](O)CCCCCC[C@@H](O)CC3=C[C@H](C)OC3=O)O2)O1 | 1.75 µM | 7.71 µM and > 25 µM | – | > 25 µM | – | > 25 µM | > 25 µM | 7.14 µM and > 25 µM | 2.06 µM | > 25 µM | 2.72 µM | 8.15 µM and > 25 µM | 1.55 µM | 4.1 µM and > 25 µM | 2.14 µM | > 25 µM |
| CN1CCN(CCCOc2cccc3nc(Nc4ccc(Cl)c(C(F)(F)F)c4)ccc23)CC1 | 1.64 µM | 3.14 µM | 1.91 µM | 3.44 µM | 2.73 µM | 7.45 µM | 1.87 µM | 4.03 µM | 1.49 µM | 3.23 µM | 1.8 µM | 3.44 µM | 1.74 µM | 3.24 µM | 1.97 µM | 4.52 µM |
| CN(Cc1cnc2nc(N)nc(N)c2n1)c1ccc(C(=O)NC(CCC(=O)O)C(=O)O)cc1Br (stereo not given) | < 0.01 µM | > 100 µM | < 0.01 µM | – | 13.7 µM | > 100 µM | < 0.01 µM | > 100 µM | < 0.0134 µM | > 100 µM | < 0.01 µM | > 100 µM | < 0.01 µM | 11.6 µM | 0.113 µM | > 100 µM |
| COc1cc2nc3cc([N+](=O)[O-])ccc3c(NCCNCC(C)(C)O)c2cc1OC | 0.472 µM | 2.83 µM | – | – | 0.672 µM | 2.99 µM | 2.83 µM | 7.49 µM | 0.533 µM | 2.31 µM | 1.7 µM | 5.43 µM | 0.698 µM | 2.97 µM | 0.437 µM | 2.91 µM |
| CCN(CC)Cc1cc2[nH]c3c4ccc(Cl)cc4ncc3c2cc1OC | 2.63 µM and 3.51 µM | 7.51 µM and 11.9 µM | 2.22 µM and 3.33 µM | 6.79 µM and 13.6 µM | 1.9 µM and 1.54 µM | 4.33 µM and 3.4 µM | 5.13 µM and 2.24 µM | – | 2.18 µM and 2.16 µM | 5.97 µM and 5.39 µM | 5.4 µM and 2.62 µM | 11.2 µM and 5.62 µM | 2.18 µM and 1.72 µM | 7.09 µM and 4.37 µM | 16.5 µM and 17.4 µM | 31.7 µM and 33.6 µM |
| O=C(CN1C(=O)S/C(=C\C(Cl)=C\c2ccccc2)C1=O)NC1C=CS(=O)(=O)C1 (stereo not given) | 2.76 µM | 11.5 µM | 1.95 µM | 3.75 µM | 2.27 µM | 17.4 µM | – | – | 1.88 µM | 5.9 µM | 2.08 µM | 6.61 µM | 1.78 µM | 4.11 µM | 0.917 µM | 8.19 µM |
| CCOC(=O)COc1ccc2c(C)cc(=O)oc2c1 | – | > 100 µM | – | > 100 µM | – | > 100 µM | – | > 100 µM | – | > 100 µM | – | – | – | > 100 µM | – | > 100 µM |
| CN(C)C(=S)SCC(=O)Nc1ccccc1 | – | – | – | > 100 µM | – | > 100 µM | – | > 100 µM | – | > 100 µM | – | – | – | > 100 µM | – | > 100 µM |
| O=C1c2ccccc2C(=O)c2c(OCCOCCO)cccc21 | – | > 100 µM | – | – | – | > 100 µM | – | > 100 µM | – | > 100 µM | – | > 100 µM | – | > 100 µM | – | > 100 µM |
| COC(=O)C=Cc1ccc2nncnc2c1 (mixture of isomers) | – | > 100 µM | – | – | – | > 100 µM | – | > 100 µM | – | > 100 µM | – | > 100 µM | – | 99 µM | – | > 100 µM |
| COC(=O)CSSCc1ccc([N+](=O)[O-])cc1 | – | 77.2 µM | – | 41 µM | – | – | – | 76.2 µM | – | 30.8 µM | – | 55.7 µM | – | 38.9 µM | – | 51.7 µM |
| O=C(COc1cccc(/C=C2\CSc3ccccc3C2=O)c1)Nc1nccs1 | 6.48 µM | 19.6 µM | 1.7 µM | 3.13 µM | 3.94 µM | 19.4 µM | – | – | 1.82 µM | 3.21 µM | 2.25 µM | 4.89 µM | 1.53 µM | 2.86 µM | 5.33 µM | 23.9 µM |
| CN(C)CCNC(=O)c1cccc2c1Oc1c(cccc1[N+](=O)[O-])O2 | – | – | – | 2.62 µM | – | > 100 µM | – | > 100 µM | – | 10.4 µM | – | 6.08 µM | – | 3.46 µM | – | 1.93 µM |
| Cc1ccc(S(=O)(=O)NC(CN)C(=O)O)cc1 (stereo not given) | – | > 100 µM | – | – | – | > 100 µM | – | – | – | > 100 µM | – | > 100 µM | – | > 100 µM | – | > 100 µM |
| N=c1c2c(=N)n3c(nc2nc2n1-c1ccccc1Sc1ccccc1-2)sc1cc(Cl)ccc13 | 2.88 µM | 68.7 µM | 1.32 µM | 4.97 µM | 2.78 µM | > 100 µM | – | – | 1.84 µM | 6.79 µM | 3.64 µM | > 100 µM | 2.34 µM | 12.6 µM | 2.41 µM | 9.5 µM |
| COc1cccc(/C=C2\COc3ccc(-c4ccccc4)cc3C2=O)c1 | 2.7 µM | 7.21 µM | 2 µM | 3.95 µM | 2.79 µM | 7.63 µM | 2.52 µM | > 100 µM | 1.56 µM | 3.05 µM | 2.35 µM | 5.03 µM | – | – | 2.03 µM | 4.98 µM |
